“Also recorded” adds a separate entry of the source.
Legend:
[1] = test system: Madin-Darby Canine Kidney (MDCK) cells; assay type: cell-based
Procedure: FIG. 19 depicts representative images of GSK3I-mediated proliferation in serum-starved MDCK cells. Cells were initially cultured in the presence of 10% fetal bovine serum (FBS) and then switched to serum-free media for 24 hours prior to the addition of 0.2% serum-containing media which included GSK3Is at the indicated concentrations in the presence of 10 μM EdU. Cells were cultured an additional 48 h prior to fixation and visualization of EdU-positive nuclei (green) via conjugation of AlexaFluor488 azide in a copper-catalyzed cycloaddition (“Click” reaction, Click-iT Edu, Life Technologies). Total nuclei were stained with DAPI (blue). NC, normal control or untreated cells cultured in the presence of 10% FBS throughout the experimental time course.
EdU-positive nuclei from imaged fields of MDCK cells cultured as described in FIG. 13 were quantified using ImageJ software (NIH) and graphed as the averaged percentile of the number of EdU-positive cells relative to the total number of DAPI-stained nuclei in each field. A minimum of four fields of cells for each experimental condition were included in this analysis. (* and ***, p<0.05 and 0.001, respectively, for statistically significant increases in EdU-positive nuclei relative to untreated, serum-starved controls).
Tideglusib was procured from Cayman Chemical Company and performed a dose curve analysis under serum starvation conditions with Madin-Darby Canine Kidney (MDCK) cells in parallel with a series of commercially-available GSK3 inhibitors to ascertain its relative proliferative potential under mitotically-suppressed conditions in this well-established mammalian epithelial cell line. In these experiments, MDCK cells were cultured under serum starvation conditions for 24 hours prior to culturing cells for 48 hours in the presence of GSK3 inhibitors and 10 μM EdU (5-ethynyl-2′-deoxyuridine), a nucleoside analog that permanently marks cells that have undergone DNA replication.

[2] = test system: neonatal murine utricular maculae; test: BIO, siHes1 and GSI in neomycin-damaged utricle cultures; assay type: cell-based, CD1 mice; settings: NEO-ablated utricles; BIO 2.5 μM, 20 nM Hes1 siRNA, GSI 5 μM
Procedure: To assess whether BIO can enhance the therapeutic efficacy of Hes1 siRNA in regenerating HCs following a toxic insult, neonatal murine utricular tissues were exposed to neomycin (NEO) and then either left untreated or were treated with one or both of the therapeutic agents. After a total of 8 days in vitro, tissues were fixed and labeled with the HC marker, Myo7a. ###, p<0.001 difference in Myo7a-postive cells relative to untreated controls. *, **, and ***, p<0.05, 0.01, and 0.001, respectively, with respect to significant differences in the number of Myo7a-postive cells between treatment groups.
Organotypic cultures from murine utricular maculae (balance organ sensory epithelia) were cultured and then harvested on postnatal day 3 (P3) from CD1 mice. These explants were then cultured in appropriate media for twenty-four hours. […] All cultures were then maintained in media without either of the test agents for a final 24 h, after which tissues were fixed in 4% paraformaldehyde solution and subjected to immunolabeling with an antibody against the hair cell marker, myosin VIIa (Myo7a), and an appropriate secondary antibody for subsequent immunofluorescence-mediated quantification of HCs along the length of the cochlear spiral (FIGS. 14-17).

[3] = test system: organotypic cultures of murine OCs; test: Hair cell counts in neomycin-damaged OC cultures treated with TIDE and/or siHES1 lipofection complexes; assay type: cell-based
Procedure: FIG. 22 depicts hair cells (Myo7a+ cells) quantified from the mid-apical and middle regions of organotypic cultures of murine OCs following a 24 h exposure to neomycin (0.7 mM) and subsequent recovery in the presence or absence of the GSK3 inhibitor Tideglusib (TIDE) and/or siHES1 (20 nM) lipofection complexes (JetSI, Polyplus).
FIG. 23 depicts hair cells (Myo7a+ cells) quantified from the mid-apical and middle regions of organotypic cultures of murine OCs following a 24 h exposure to neomycin (0.7 mM) and subsequent recovery in the presence or absence of the GSK3 inhibitor Tideglusib (TIDE) and/or siHES1 (20 nM) lipofection complexes (JetSI, Polyplus).
FIG. 25 depicts hair cells (Myo7a+ cells) quantified from the mid-apical, middle, and mid-basal regions of organotypic cultures of murine OCs following a 24 h exposure to neomycin (0.7 mM) and subsequent recovery in the presence or absence of the GSK3 inhibitor Tideglusib (TIDE) and/or siHES1 (20 nM) lipofection complexes (JetSI, Polyplus). One set of NEO-ablated OCs were treated with TIDE then siHes1 in the presence of 2 ng/mL FGF-2 as a media supplement with the aim of potentially enhancing the effects of Tideglusib.
The protocol described above for BIO is used, substituting the addition of BIO for 10.0 μM Tideglusib (TIDE). A third treatment group is added, where Tideglusib is included in the culture medium after siHes1, parallel to the other protocols: on P4 or P5 (depending on whether there was an ototoxic insult to simulate hair cell loss) the control media is added with or without the inclusion of 10.0 μM TIDE; on P7 siHes1 is added in the presence of absence of TIDE; and on P9 10.0 μM Tideglusib is included in the media for a subset of cultures. On P11, all media is replaced with fresh media without any therapeutics. On P12, the tissues are fixed for immunolabeling. An example of comparative analyses from this treatment paradigm, following an exposure to the ototoxic aminoglycoside, NEO, is depicted in FIG. 22.
This experimental paradigm was again repeated adding additional treatment groups where FGF-2 was optionally included in the culture medium at 2 ng/mL at P5, P7, and P9 for a subset of cultures.

[4] = test system: Hes1 transcript in IMO-2B1 murine inner ear cell line; test: Hes1 knockdown efficiency by RT-qPCR, transfected siHES1 molecules; assay type: cell-based; settings: IMO-2B1, RNAiMAX, 48 hours after transfection
Text: FIG. 27 depicts reverse transcription-quantitative polymerase chain reaction (RT-qPCR) results from comparative dose curve analyses of Hes1 knockdown efficiency relative to mock-treated controls in a murine inner ear cell line (IMO-2B1), using two distinct siHES1 molecules with conserved target sites among mammalian Hes1 transcripts. SiRNA molecules were transfected into sub-confluent wells of IMO-2B1, using a commercial transfection agent (RNAiMAX, ThermoFisher Sci.). Forty-eight hours after transfection, total RNA was isolated and subjected to RT-qPCR analyses, using primers against Hes1 and the house keeping gene GAPDH. Relative Hes1 levels were determined by the 2^−ΔΔCT method (See Livak and Schmittgen (2001) Methods 25(4):402-408, incorporated by reference in its entirety). The apparent potency of molecule #7 for depleting Hes1 transcript levels was considerably greater than that of molecule #1, as optimal knockdown using molecule #7 was observed using as little as 2 nM siRNA (relative to ˜20 nM required for molecule #1).

[5] = neomycin 0.7 mM 24 h, 10.0 μM TIDE, siHES1 20 nM lipofection complexes (FIG. 22)

Compound: O=C1Nc2cc(Br)ccc2/C1=C1/Nc2ccccc2/C1=N\O [BIO, 6-bromoindirubin-3′-oxime]
- proliferative response (EdU-positive nuclei) ([1]; serum-starved MDCK, 48 h, across dose range tested (up to 10 μM)): reduced numbers of EdU-positive nuclie
- HC numbers (Myo7a-positive cells) in striolar/extrastriolar region [2]: increased HC numbers within the striolar region

Compound: Cc1c[nH]c(-c2cnc(NCCNc3ccc(C#N)cn3)nc2-c2ccc(Cl)cc2Cl)n1 [CHIR-99021]
- number of EdU-positive nuclei ([1]; 10 μM, relative to untreated serum-starved cells): statistically insignificant relative to untreated, serum-starved cells
- mitotically-active cells (EdU-positive nuclei) ([1]; low-dose (0.1 μM), serum starvation): robust, statistically-significant increase in mitotically-active cells

Compound: C[C@H](NC(=O)Cc1cc(F)cc(F)c1)C(=O)N[C@@H]1C(=O)N(C)c2ccccc2-c2ccccc21 [GSI, deshydroxy LY 411575]
- HC numbers (Myo7a-positive cells) in striolar/extrastriolar region [2]: increased HC numbers within the striolar region

Compound: [Cl-].[Li+] [LiC1, lithium chloride]
- EdU-positive cells ([1]; 10 mM, relative to identical dose of sodium chloride): increased numbers of EdU-positive cells

Compound: NC[C@@H]1O[C@H](O[C@H]2[C@@H](O)[C@H](O[C@@H]3[C@@H](O)[C@H](N)C[C@H](N)[C@H]3O[C@H]3O[C@H](CN)[C@@H](O)[C@H](O)[C@H]3N)O[C@@H]2CO)[C@H](N)[C@@H](O)[C@@H]1O [NEO alone, neomycin]
- Hair Cell Counts ± SEM, Mid-apical turn [3, 5]: 5.1 ± 1.1
- Hair Cell Counts ± SEM, Middle Turn [3, 5]: 2.5 ± 0.8

Compound: FGF-2: basic fibroblast growth factor used as media supplement
- effect of FGF-2 media supplement on HC regeneration ([3]; 2 ng/mL FGF-2, NEO-ablated OCs, with or without TIDE then siHes1): did not elicit a therapeutic response on its own; also recorded: potentiated the therapeutic effects of TIDE/siHES1 treatment through the mid-basal turn of the OC

Compound: Molecule 1: siRNA, murine Hes1 mRNA nt 239-257, SEQ ID NO: 1 and 2 (chain 1 CAGCUGAUAUAAUGGAGAATT; chain 2 UUCUCCAUUAUAUCAGCUGTT; chemistry not given here)
- siRNA concentration for optimal Hes1 knockdown [4]: ~20 nM

Compound: Molecule 7: siRNA, human Hes1 mRNA nt 673-691, SEQ ID NO: 13 and 14 (chain 1 ACUGCAUGACCCAGAUCAA; chain 2 UUGAUCUGGGUCAUGCAGU; listed as RNA, chemistry not given here)
- siRNA concentration for optimal Hes1 knockdown [4]: 2 nM
